≈ marks a conversion by molar mass, not a printed value.
Tests used:
Assay in all cases: ≥ marks a high value that may be exact or a test limit, other limits are often not marked, values filed in µg/mL are converted to µM
[1] = tested on: Pseudomonas corrugata DSM 7228
[2] = tested on: Xanthomonas vesicatoria DSM 50861
[3] = tested on: Pectobacterium carotovorum subsp. carotovorum DSM 30168
[4] = tested on: Pseudomonas syringae pv. tomato DC3000
[5] = tested on: Pseudomonas syringae pv. syringae DSM 10604
[6] = tested on: Clavibacter michiganensis subsp. michiganensis DSM 46294
Micrococcus luteus = tested on: Micrococcus luteus
[7] = tested on: Staphylococcus aureus ATCC 25923
Saccharomyces cerevisiae = tested on: Saccharomyces cerevisiae
[8] = tested on: Pseudomonas aeruginosa ATCC 15692
[9] = tested on: Escherichia coli ATCC 25922
Staphylococcus aureus = tested on: Staphylococcus aureus
Pseudomonas aeruginosa = tested on: Pseudomonas aeruginosa
[10] = tested on: Micrococcus luteus CCM 144
Bacillus subtilis 168 = tested on: Bacillus subtilis 168
Escherichia coli B = tested on: Escherichia coli B
[11] = tested on: Candida albicans F7-39/IDE99
[12] = tested on: Micrococcus luteus ATCC 4698

Structure (SMILES) | MIC [1] [µM] | MIC [2] [µM] | MIC [3] [µM] | MIC [4] [µM] | MIC [5] [µM] | MIC [6] [µM] | other results
CC[C@H](C)[C@H](NC(=O)[C@H](CC(C)C)NC(=O)[C@H](CCCCN)NC(=O)[C@H](CCCCN)NC(=O)[C@@H](NC(=O)[C@@H](NC(=O)[C@H](CCCCN)NC(=O)[C@H](CCCCN)NC(=O)[C@H](CCCCN)NC(=O)[C@H](CCCCN)NC(=O)[C@H](CCCCN)NC(=O)[C@@H](N)CCCN=C(N)N)[C@@H](C)CC)[C@@H](C)CC)C(N)=O [RKKKKKIIKKLI] | 1.64 (≈ 2.5 µg/mL) | 6.56 (≈ 9.99 µg/mL) | 6.56 (≈ 9.99 µg/mL) | 1.64 (≈ 2.5 µg/mL) | 0.328 (≈ 0.5 µg/mL) | 6.56 (≈ 9.99 µg/mL) | 
CC[C@H](C)[C@H](NC(=O)[C@@H]1CCCN1C(=O)[C@H](CCC(N)=O)NC(=O)[C@@H](NC(=O)[C@H](CC(C)C)NC(=O)[C@H](CCCCN)NC(=O)[C@@H]1CCCN1C(=O)CNC(=O)[C@H](CC(C)C)NC(=O)[C@H](CCC(N)=O)NC(=O)[C@H](CCSC)NC(=O)[C@H](C)NC(=O)[C@H](CCCCN)NC(=O)[C@H](CCCN=C(N)N)NC(=O)[C@H](CC(C)C)NC(=O)[C@@H](NC(=O)[C@H](CCCCN)NC(=O)CNC(=O)[C@H](Cc1ccccc1)NC(=O)[C@@H](NC(=O)[C@@H]1CCCN1C(=O)[C@H](CC(C)C)NC(=O)[C@H](Cc1c[nH]c2ccccc12)NC(=O)CN)[C@@H](C)O)[C@@H](C)CC)[C@@H](C)CC)C(=O)O [GWLPTFGKILRKAMQLGPKLIQPI] |  |  |  |  |  |  | MIC (Micrococcus luteus): 1 µM (≈ 2.71 µg/mL); MIC [7]: 16 µM (≈ 43.3 µg/mL); MIC (Saccharomyces cerevisiae): ≥ 32 µM; MIC [8]: 11.3 µM (≈ 30.6 µg/mL); MIC [9]: 1.41 µM (≈ 3.83 µg/mL)
CC[C@H](C)[C@H](NC(=O)[C@H](C)NC(=O)CNC(=O)[C@H](Cc1c[nH]c2ccccc12)NC(=O)[C@H](CC(N)=O)NC(=O)[C@@H](N)CC(C)C)C(=O)N[C@@H](CC(C)C)C(=O)N[C@@H](CCCCN)C(=O)N[C@@H](Cc1cnc[nH]1)C(=O)N[C@H](C(=O)N[C@H](C(=O)N[C@@H](CCCCN)C(N)=O)[C@@H](C)CC)[C@@H](C)CC [LNWGAILKHIIK] |  |  |  |  |  |  | MIC (Staphylococcus aureus): 10.6 µM (≈ 14.9 µg/mL); MIC (Pseudomonas aeruginosa): 51.7 µM (≈ 72.6 µg/mL); MIC [10]: 1.5 µM (≈ 2.11 µg/mL); MIC (Bacillus subtilis 168): 1.3 µM (≈ 1.83 µg/mL); MIC (Escherichia coli B): 3.7 µM (≈ 5.2 µg/mL); MIC [11]: 7.3 µM (≈ 10.3 µg/mL)
CC[C@H](C)[C@H](NC(=O)[C@H](CO)NC(=O)[C@H](CCCCN)NC(=O)[C@H](CO)NC(=O)[C@H](Cc1cnc[nH]1)NC(=O)[C@H](CCCN=C(N)N)NC(=O)[C@H](Cc1cnc[nH]1)NC(=O)[C@H](CO)NC(=O)[C@H](CCC(N)=O)NC(=O)[C@H](Cc1ccc(O)cc1)NC(=O)[C@H](CC(N)=O)NC(=O)[C@H](CC(N)=O)NC(=O)[C@@H]1CCCN1C(=O)[C@H](CO)NC(=O)CNC(=O)[C@H](Cc1ccccc1)NC(=O)CN)C(=O)N1CCC[C@H]1C(=O)NCC(=O)N[C@@H](CCCN=C(N)N)C(=O)O [GFGSPNNYQSHRHSKSIPGR] |  |  |  |  |  |  | MIC [12]: ≥ 75 µM
CC[C@H](C)[C@H](NC(=O)[C@H](CC(C)C)NC(=O)[C@H](CCCN=C(N)N)NC(=O)[C@H](CCCCN)NC(=O)[C@H](CC(C)C)NC(=O)[C@H](CC(C)C)NC(=O)[C@H](CCCCN)NC(=O)[C@H](CCCCN)NC(=O)[C@H](CCCN=C(N)N)NC(=O)[C@@H](N)CCCCN)C(N)=O [KRKKLLKRLI] | 0.386 (≈ 0.5 µg/mL) | 7.72 (≈ 9.99 µg/mL) | 7.72 (≈ 9.99 µg/mL) | 0.772 (≈ 0.999 µg/mL) | 0.0772 (≈ 0.1 µg/mL) | 7.72 (≈ 9.99 µg/mL) | 

Reference: DBAASP
